Assay results taken from patent publication US12162878B2 (HINOVA PHARMACEUTICALS INC., priority 2018, dated 2024).

Columns and labels:
Type in all cases: cell-based, human
MCF-7 cells = experiment: Inhibition of proliferation of MCF-7 cells (CCK-8)
Protocol: (§1) • MCF-7 cell line (Cell Bank of Chinese Academy of Sciences, TCHu74) • FBS (Gibco, Cat. No. 10099-141) • 0.01M PBS (Biosharp, Cat. No. 162262) • RIPM1640 (Hyclone, Cat. No. 308090.01) • Penicillin-Streptomycin (Hyclone, Cat. No. SV30010) • Cell counting kit-8 (Signalway Antibody, Cat. No. CP002) • DMSO (Sigma, Cat. No. D5879) • Centrifuge Tube, 15 ml (Excell Bio, Cat. No. CS015-0001) • Cell Culture Dish, (Excell Bio, Cat. No. CS016-0128) • 96-well cell culture cluster (Corning, Cat. No. 3599) 3. Experimental Method
1) MCF-7 cells were subcultured in cell culture media, and the cells in good growth condition were seeded in a 96-well plate, 80 μL for each well, thus the number of cells per well was 1000, then the plate was cultured overnight in a 37° C., 5% CO2 cell incubator.
(§2) 2) The drug was prepared with dimethyl sulfoxide (DMSO) as a 10 mM stock solution. Prior to use, the solution was diluted 3 times with DMSO, and then diluted with a 3-fold gradient to obtain 9 concentration gradients. Then, each concentration of the compound was further diluted 200 times with the culture media (to ensure that DMSO concentration in the culture system was 0.1%), 2 repeat wells for each concentration. The diluted solution of each compound (20 μL) was added to the cell culture well (with a final concentration of 10 μM, 3.3 μM, 1.1 μM . . . ), and shaken gently for mixing.
In addition, three negative control wells containing only cells and three blank control wells containing only culture medium (20 μL DMSO diluted 200 times with culture medium being added to six wells) were included.
(§3) (1) After culturing for 6 days, 10 μL CCK-8 was added to each well and cultured for additional 2.5 h in a 37° C., 5% CO2 cell incubator.
(§4) (2) The absorbance (OD value) at 450 nm was measured with a multifunctional microplate reader.
(§5) (3) The data was analyzed by the Dose-response-inhibition equation in the software GraphPad Prism6, and the IC50 value was obtained.

MDA-MB-231 cells = experiment: Inhibition of proliferation of MDA-MB-231 cells (CCK-8)
Protocol: as §1, with “MDA-MB-231” for “MCF-7”, “TCHu104)” for “TCHu74)”
1) MDA-MB-231 cells were subcultured in cell culture media, and the cells in good growth condition were seeded in a 96-well plate, 80 μL for each well, thus the number of cells per well was 1500, then the plate was cultured overnight in a 37° C., 5% CO2 cell incubator.
as §2, with “mixing. In addition, three negative control wells containing only cells and three blank control wells containing only culture medium (20 μL DMSO diluted 200 times with culture medium being added to six wells) were included.” for “mixing.”
as §3, §4, §5

CWR22RV1 cells [1] = experiment: Inhibition of proliferation of CWR22RV1 cells (CCK-8); details: Homo sapiens, CWR22Rv1, 144 h, 6 days
Outline: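 Cells seeded at 1500/well, cultured overnight, then exposed to compounds in 3-fold dilutions (9 concentrations from 10 μM top final, 0.1% DMSO) for 6 days at 37 °C. Viability read by CCK-8 absorbance at 450 nm after 2.5 h; IC50 from dose-response inhibition fit.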

MDA-MB-453 cells = experiment: Inhibition of proliferation of MDA-MB-453 cells (CCK-8); details: Homo sapiens, 144 h, 6 days, CCK-8
Protocol: as §1, with “MDA-MB-453” for “MCF-7”, “TCHu35)” for “TCHu74)”
1) MDA-MB-453 cells were subcultured in cell culture media, and the cells in good growth condition were seeded in a 96-well plate, 80 μL for each well, thus the number of cells per well was 1500, then the plate was cultured overnight in a 37° C., 5% CO2 cell incubator.
as §2, with “mixing. In addition, three negative control wells containing only cells and three blank control wells containing only culture medium (20 μL DMSO diluted 200 times with culture medium being added to six wells) were included.” for “mixing.”
as §3, §4, §5

CWR22RV1 cells [2] = experiment: Compound in combination with androgen receptor inhibitor HC-1119, proliferation of CWR22RV1 cells (CCK-8); details: for IC50: Homo sapiens, CWR22Rv1, 144 h, 6 days, read-out: IC50 for inhibition on the activity of CWR22RV1
Protocol: as §1, with “CWR22RV1” for “MCF-7”, “TCHu100)” for “TCHu74)”, “3599)” for “3599) 3.”, “Method:” for “Method”
1) CWR22RV1 cells were subcultured in cell culture media, and the cells in good growth condition were seeded in a 96-well plate, 60 μL for each well, thus the number of cells per well was 2000, then the plate was cultured overnight in a 37° C., 5% CO2 cell incubator.
(§6) 2) The drug was prepared with dimethyl sulfoxide (DMSO) as a 10 mM stock solution. Prior to use, the solution was diluted 3 times with DMSO, and then diluted with a 3-fold gradient to obtain 9 concentration gradients. Then, each concentration of the compound was further diluted 200 times with the culture media (to ensure that DMSO concentration in the culture system was 0.1%), 2 repeat wells for each concentration. The diluted solution of each compound (20 μL) was added to the cell culture well (with a final concentration of 10 μM, 3.3 μM, 1.1 μM . . . ); while the solution of HC-1119 was diluted with culture media to the concentrations of 50 μM and 15 μM, respectively, and the diluted solution of HC-1119 was added to the corresponding cell culture well (with a final concentration of 10 μM, 3 μM), then shaken gently for mixing. In addition, three negative control wells containing only cells and three blank control wells containing only culture media (20 μL DMSO diluted 200 times with culture media being added to six wells) were included.
as §3, §4, §5

Vcap cells [3] = experiment: Compound in combination with androgen receptor inhibitor HC-1119, proliferation of Vcap cells (CCK-8); details: for IC50: Homo sapiens, VCaP, 144 h, 6 days, read-out: IC50 for inhibition on the activity of Vcap
Protocol: as §1, with “Vcap” for “MCF-7”, “TCHu220)” for “TCHu74)”, “DMEM HIGH Glucose” for “RIPM1640”, “SH30243.01)” for “308090.01)”, “Dish” for “Dish,”, “2.” for “3.”
1) Vcap cells were subcultured in cell culture media, and the cells in good growth condition were seeded in a 96-well plate, 60 μL for each well, thus the number of cells per well was 10000, then the plate was cultured overnight in a 37° C., 5% CO2 cell incubator.
as §6, with “10 μM, 1 μM), then” for “10 μM, 3 μM), then”
as §3, §4, §5

Vcap cells [4] = experiment: Inhibition of proliferation of Vcap cells (CCK-8)
Protocol: as §1, with “Vcap” for “MCF-7”, “TCHu220)” for “TCHu74)”, “DMEM HIGH Glucose” for “RIPM1640”, “SH30243.01)” for “308090.01)”, “2.” for “3.”
1) Vcap cells were subcultured in cell culture media, and the cells in good growth condition were seeded in a 96-well plate, 80 μL for each well, thus the number of cells per well was 10000, then the plate was cultured overnight in a 37° C., 5% CO2 cell incubator.
2) The drug was prepared with dimethyl sulfoxide (DMSO) as a 10 mM stock solution. Prior to use, the solution was diluted 3 times with DMSO, and then diluted with a 3-fold gradient to obtain 9 concentration gradients. Then, each concentration of the compound was further diluted 200 times with the culture media (to ensure that DMSO concentration in the culture system was 0.1%), 2 repeat wells for each concentration. The diluted solution of each compound (20 μL) was added to the cell culture well (with a final concentration of 10 μM, 3.3 μM, 1.1 μM . . . ), and shaken gently for mixing. In addition, three negative control wells containing only cells and three blank control wells containing only culture medium (20 μL DMSO diluted 200 times with culture medium being added to six wells) were included.
as §3, §4, §5

[5] = Homo sapiens, 144 h, 6 days, CCK-8

| IC50 (MCF-7 cells; Homo sapiens, MCF7, 144 h, 6 days, CCK-8) [nM] | IC50 (MDA-MB-231 cells; [5]) [nM] | IC50 (MDA-MB-453 cells) [nM] | IC50 (Vcap cells [3]; compound alone, Vcap cells) [nM] | IC50 (Vcap cells [3]; in combination with 1 μM HC-1119, Vcap cells) [nM] | IC50 (Vcap cells [3]; in combination with 10 μM HC-1119, Vcap cells) [nM] | IC50 (Vcap cells [4]; [5]) [nM] | Structure (SMILES) | inhibitory action on MCF-7 cells (in words) (MCF-7 cells) | inhibitory action on MDA-MB-231 cells (in words) (MDA-MB-231 cells) | IC50 (CWR22RV1 cells [1]) [nM] | IC50 (CWR22RV1 cells [2]; compound alone, CWR22RV1 cells) [nM] | IC50 (CWR22RV1 cells [2]; in combination with 3 μM HC-1119, CWR22RV1 cells) [nM] | IC50 (CWR22RV1 cells [2]; in combination with 10 μM HC-1119, CWR22RV1 cells) [nM] | effect of combination with HC-1119 on inhibitory action on CWR22RV1 cells (in words) (CWR22RV1 cells [2]; in combination with HC-1119, CWR22RV1 cells) | effect of combination with HC-1119 on inhibitory action on Vcap cells (in words) (Vcap cells [3]; in combination with HC-1119, Vcap cells) | inhibitory action on Vcap cells (in words) (Vcap cells [4]) |
| --- | --- | --- | --- | --- | --- | --- | --- | --- | --- | --- | --- | --- | --- | --- | --- | --- |
| 29 | 39 | 720 | – | – | – | – | Cn1cc(-c2cc(S(C)(=O)=O)ccc2N2CCC3(CC2)CC3(F)F)c2cc[nH]c2c1=O [Compound 178, 4-(2-(1,1-difluoro-6-aza-spiro[2.5]octan-6-yl)-5-(methylsulfonyl)phenyl)-6-methyl-1H-pyrrolo[2,3-c]pyridin-7(6H)-one] | effective inhibitory action | effective inhibitory action | 5 | – | – | – | – | – | – |
| – | – | – | 3.9 | 0.076 | 0.027 | 3.9 | [2H]C([2H])([2H])n1cc(-c2cc(S(=O)(=O)CC)ccc2N2CCC3(CC2)CC3(F)F)c2cc[nH]c2c1=O [Compound 231, 4-(2-(1,1-difluoro-6-aza-spiro[2.5]octan-6-yl)-5-(ethylsulfonyl)phenyl)-6-trideuteromethyl-1H-pyrrolo[2,3-c]pyridin-7(6H)-one] | – | – | – | 1.8 | 0.65 | 0.51 | improve the inhibitory action | improve the inhibitory action | effective inhibitory action |
